Data published in patent US9353090B2, “Heterocyclic carboxylic acids as activators of soluble guanylate cyclase” (Boehringer Ingelheim International GmbH, priority 2014, dated 2016).
Values after ≈ are worked out from the molar mass of the structure shown.

Experiments:
physchem = settings: kinetic from dmso stock
Method: Solubility is measured by the following method.
100 uL, 10 mM DMSO stock solution of each compound is prepared in a 96 well plate format. The experiment is done in single determination at 3 pH values (2.2, 4.5 and 6.8). For each pH and one reference, 40 uL of each compound is needed.
McIlvaine pH 2.2: To 2.076 g citric acid monohydrate and 0.043 g Na2HPO4×2H2O add 100 ml deionized water
McIlvaine pH 4.5: To 1.166 g citric acid monohydrate and 1.585 g Na2HPO4×2H2O add 100 ml deionized water
McIlvaine pH 6.8: To 0.476 g citric acid monohydrate and 2.753 g Na2HPO4×2H2O add 100 ml deionized water
With a suitable liquid handling device (Multipette® or a liquid handler) 390 uL of each buffer solution and 10 uL of compound is added to each well of a 96 deep well plate. The plates are covered firmly and shaken for 24 h on an over head shaker (at 54 RPM) at room temperature. The DMSO content in the final buffer is 2.5% v/v.
After 24 h the plates are centrifuged to remove droplets on the lid before opening (for ˜5 min at 2500 RPM).
The filtration is done under vacuum with Millipore 96 well filter plate. Filtrate is collected in a deep well plate and transferred to a suitable plate for UPLC analysis.
The reference plate is prepared by adding 10 uL of compound to 390 uL of 50:50 acetonitrile/water in a 96 deep well plate and transferred to a suitable plate for UPLC analysis. Wells are checked visually for precipitation, any presence noted under comments in reported results.
The samples are measured with UPLC-UV using the chromatographic method described below.
Waters Empower®2 software is used for generating Sample Sets (according to the plate layout), Sample Set Methods and Instrument Methods.
One Sample Set comprises the methods for three 96 well plates (one reference plate and two sample plates, and includes one Sample Set Method and one Instrument Method).
Data Processing and Analysis
The UV chromatograms collected at 254 nm are integrated and processed.
It is assumed that the compound is completely dissolved in the reference solution (50:50 acetonitrile/water)

[1] = Human liver microsome (HLM) metabolic stability assay; type: in vitro ADME; settings: human liver microsomes
Method: The 5 time point, high-throughput human liver microsome (HLM) metabolic stability assay is designed to determine in vitro compound metabolism. Compounds are incubated with HLMs at a concentration of 1 uM, at 37° C., for a total of 60 min. The percent of compound remaining at 5, 15, 30, and 60 min is used to calculate the t1/2 (min), CLint (mL/min/kg), CLh (mL/min/kg), and % Qh. The assay is based on a 96-well format and can accommodate up to 92 compounds per plate (n=1).
Using the 96-well multi-channel head, the Biomek FX, equipped with a Peltier heating block/shaker, is programmed to accomplish the following steps: • 1. Pipette 175 uL of 1.15 mg/mL microsomes into each of the 96 conical inserts (Analytical Sales and Products, catalog number 96PL05) that fit into the plate of the Peltier heating block/shaker (the incubation plate) • 2. Add 5 uL of compounds from the assay plate to the microsomes and shake the mixture at 600 rpm at 42.1° C. for 10 min (a setting of 42.1° C. on the Peltier is required for the samples to incubate at 37° C.) • 3. After 10 min, prompt the user to add the NADPH plate to the deck and add 20 uL from the NADPH plate to the incubation plate to start the reaction • 4. Add 215 uL of 100%, cold acetonitrile containing an internal standard(s) to a 0 minute, 5 minute, 15 minute, 30 minute, and 60 minute “quench” plate • 5. At 0 min, 5 min, 15 min, 30 min, and 60 min into the incubation, aspirate 12 uL from the incubation mixture and add it to the quench solution to stop the reaction • 6. Add 185 uL HPLC grade water to each well of the 0, 5, 15, 30 and 60 minute quench plates to dilute compounds to the appropriate concentration for the mass spectrometer
After all time points are collected, the quench plates are sealed with 96-well pierceable plate mats or heat sealing foil and centrifuged at 3000 rpm for 15 min to pellet the microsomes.
The plates are analyzed using LC/MS/MS with electron spray ionization (ESI) and the previously determined MRM transitions. The LC method includes the following parameters:
Using an Excel template in Activitybase, the peak areas corresponding to 5, 15, 30 and 60 min are compared to the peak area at 0 min to calculate the percent of remaining compound using the following equation:
Percent compound remaining=(AUC at Time t min/AUC at Time 0 min)×100 where t=0, 5, 15, 30 or 60 min.
Time (min) is plotted against the natural logarithm (Ln) of the percent compound remaining to determine the slope. The slope is used to calculate t1/2 (min) using the equation, t1/2=0.693/slope.
Clh, Hepatic clearance • Hepatic flow*f(u)*Clint/(hepatic flow+f(u)*Clint)
Qh, % Hepatic blood flow • (Clh/Hepatic flow)*100
Preferred compounds have % Qh values of less than 24.

[2] = target: human soluble guanylate cyclase alpha 1 and beta 1 subunits (sGC) (Homo sapiens (Human), UniProt Q02108+Q02153); experiment: sGC cellular activator assay (cGMP, HTRF), in the presence and absence of 50% human serum; type: cell-based; settings: CHO cells stably expressing human sGC alpha 1/beta 1, preincubated with 40 microM ODQ; cGMP by HTRF; Table 2 does not state whether with or without 50% human serum
Method: The sGC cellular activator assay is performed in the presence and absence of 50% human serum (HS) using Chinese hamster ovary cells that have been stably transfected to express the human soluble guanylate cyclase alpha 1 and beta 1 subunits (sGC). Cells are preincubated with 40 microM 1H-[1,2,4]oxadiazolo[4,3-a]quinoxalin-1-one (ODQ), an sGC inhibitor, for one h in buffer containing 0.1% bovine serum albumin and 3-isobutyl-1-methylxanthine (IBMX). Concentration response curves are prepared for test compounds in DMSO. An intermediate dilution of the compounds is performed in either buffer containing IBMX or type AB HS containing IBMX. Diluted compounds are added to cells and they are incubated at room temperature for thirty min. cGMP is measured using a CisBio homogeneous time resolved fluorescence kit and the EC50 is calculated for each compound.
Representative compounds of the present invention were tested for activity the above assay. Preferred compounds have an EC50 of <1,000 nM in the above assay and more preferred compounds have an EC50<200 nM.

[3] = pH 2.2, aqueous buffer, Solubility (pH 2.2)
[4] = pH 4.5, aqueous buffer, Solubility (pH 4.5)
[5] = pH 6.8, aqueous buffer, Solubility (pH 6.8)

Chain of human soluble guanylate cyclase alpha 1 and beta 1 subunits (sGC) (Q02108 whole entry partner): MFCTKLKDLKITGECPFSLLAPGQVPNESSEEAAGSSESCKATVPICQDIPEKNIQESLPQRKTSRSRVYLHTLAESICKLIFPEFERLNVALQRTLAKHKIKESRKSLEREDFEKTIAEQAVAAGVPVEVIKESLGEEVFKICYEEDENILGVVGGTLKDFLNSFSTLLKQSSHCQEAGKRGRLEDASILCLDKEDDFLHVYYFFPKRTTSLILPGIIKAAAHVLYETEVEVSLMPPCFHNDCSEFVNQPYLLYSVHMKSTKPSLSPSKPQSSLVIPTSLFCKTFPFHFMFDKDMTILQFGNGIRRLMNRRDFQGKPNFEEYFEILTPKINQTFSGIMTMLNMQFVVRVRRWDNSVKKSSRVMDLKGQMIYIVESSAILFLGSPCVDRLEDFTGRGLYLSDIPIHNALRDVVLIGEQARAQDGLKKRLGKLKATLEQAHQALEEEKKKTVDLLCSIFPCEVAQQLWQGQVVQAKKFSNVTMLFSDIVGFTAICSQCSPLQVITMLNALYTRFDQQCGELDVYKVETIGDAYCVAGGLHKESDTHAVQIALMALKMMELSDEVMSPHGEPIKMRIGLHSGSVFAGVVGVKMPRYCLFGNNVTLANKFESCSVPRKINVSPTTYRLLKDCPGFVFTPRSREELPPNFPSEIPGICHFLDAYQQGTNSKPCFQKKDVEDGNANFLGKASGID
Chain of human soluble guanylate cyclase alpha 1 and beta 1 subunits (sGC) (Q02153 whole entry): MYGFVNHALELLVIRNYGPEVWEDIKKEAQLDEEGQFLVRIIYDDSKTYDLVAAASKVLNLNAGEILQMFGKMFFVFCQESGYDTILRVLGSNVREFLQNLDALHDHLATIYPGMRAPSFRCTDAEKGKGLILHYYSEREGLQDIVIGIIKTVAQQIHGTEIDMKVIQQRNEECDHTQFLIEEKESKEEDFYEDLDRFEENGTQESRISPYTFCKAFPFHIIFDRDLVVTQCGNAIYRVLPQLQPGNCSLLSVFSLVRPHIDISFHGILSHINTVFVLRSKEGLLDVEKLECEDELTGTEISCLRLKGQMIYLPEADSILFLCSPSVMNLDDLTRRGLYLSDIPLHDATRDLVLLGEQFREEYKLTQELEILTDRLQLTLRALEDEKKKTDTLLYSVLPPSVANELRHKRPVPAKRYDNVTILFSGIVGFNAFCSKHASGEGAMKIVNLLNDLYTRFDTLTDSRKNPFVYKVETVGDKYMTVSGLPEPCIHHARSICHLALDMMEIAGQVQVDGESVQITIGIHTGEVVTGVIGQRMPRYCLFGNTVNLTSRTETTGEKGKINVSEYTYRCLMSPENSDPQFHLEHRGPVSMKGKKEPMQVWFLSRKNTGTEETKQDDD

Structure (SMILES) | solubility at 24 h (physchem; [3]) | solubility at 24 h (physchem; [4]) | solubility at 24 h (physchem; [5]) | Metabolic stability (Qh %), % hepatic blood flow [1] | EC50 [2]
Cc1cccc(-c2cccc(N3CC4OCC3C4C(=O)O)n2)c1OCc1ccc2c(c1C)CCN(C1CCOCC1)C2 (stereo not drawn) [Compound 214] | 118 µg/mL (≈ 207 µM) | 108 µg/mL (≈ 189 µM) | 87.9 µg/mL (≈ 154 µM) | <24% | 243 nM
Cc1cc(CN2CCc3c(ccc(COc4ccccc4-c4cccc(N5CC[C@@]6(C(=O)O)C[C@H]6C5)n4)c3C)C2)no1 [Compound 311] | 99.5 µg/mL (≈ 176 µM) | 61.6 µg/mL (≈ 109 µM) | 0.5 µg/mL (≈ 0.885 µM) | 63% | 3 nM
Cc1ccc(OCc2cc(C)c3c(c2)CCN(CC2COCCO2)C3)c(-c2csc(N3CC[C@@]4(C(=O)O)C[C@H]4C3)n2)c1 (stereo partly drawn) [Compound 120] | 130 µg/mL (≈ 220 µM) | 27 µg/mL (≈ 45.8 µM) | 2.2 µg/mL (≈ 3.73 µM) | <24% | 6 nM
Cc1ccc(OCc2ccc3c(c2)CCN(C2CCOC2)C3)c(-c2csc(N3CC[C@@]4(C(=O)O)C[C@H]4C3)n2)c1 (stereo partly drawn) [Compound 114] | 120 µg/mL (≈ 220 µM) | 38 µg/mL (≈ 69.6 µM) | 5 µg/mL (≈ 9.16 µM) | <24% | 7 nM
Cc1ccc(OCc2ccc3c(c2)CCN(C2CCOCC2)C3)c(-c2cccc(N3CC[C@@]4(C(=O)O)C[C@H]4C3)n2)c1 [Compound 16] | 130 µg/mL (≈ 235 µM) | 96 µg/mL (≈ 173 µM) | 41 µg/mL (≈ 74 µM) | 28% | 8 nM
CCc1cc(COc2c(C)cccc2-c2cccc(N3C[C@@H]4C[C@]4(C(=O)O)[C@H]3COC)n2)cc2c1CN(C1CCOC1)CC2 (stereo partly drawn) [Compound 55] | 150 µg/mL (≈ 251 µM) | 110 µg/mL (≈ 184 µM) | 82 µg/mL (≈ 137 µM) | <24% | 10 nM
COC[C@H]1N(c2cccc(-c3cccc(C)c3OCc3ccc4c(c3)CCN(C3CCOCC3)C4)n2)C[C@@H]2C[C@@]21C(=O)O [Compound 44] | 130 µg/mL (≈ 223 µM) | 110 µg/mL (≈ 188 µM) | 86 µg/mL (≈ 147 µM) | <24% | 58 nM
COC[C@H]1N(c2cccc(-c3cccc(C)c3OCc3cc4c(c(OC)c3)CN(C3COC3)CC4)n2)C[C@@H]2C[C@@]21C(=O)O [Compound 58] | 110 µg/mL (≈ 188 µM) | 90 µg/mL (≈ 154 µM) | 80 µg/mL (≈ 137 µM) | <24% | 30 nM
COC[C@H]1N(c2cccc(-c3cccc(C)c3OCc3ccc4c(c3)CCN(C3COC3)C4)n2)C[C@@H]2C[C@@]21C(=O)O [Compound 43] | 140 µg/mL (≈ 252 µM) | 120 µg/mL (≈ 216 µM) | 97 µg/mL (≈ 175 µM) | <24% | 63 nM
CO[C@@H]1CN(c2cccc(-c3cccc(C)c3OCc3ccc4c(c3)C(C)(C)CN(C3COC3)CC4)n2)CC[C@@H]1C(=O)O [Compound 326] | 129 µg/mL (≈ 220 µM) | 91.1 µg/mL (≈ 156 µM) | 71.6 µg/mL (≈ 122 µM) | 59% | 1 nM
Cc1cccc(-c2ccnc(N3C[C@@H]4C[C@]4(C(=O)O)C3)n2)c1OCc1ccc2c(c1C)CCN(C1CCOCC1)C2 [Compound 189] | 110 µg/mL (≈ 198 µM) | 66 µg/mL (≈ 119 µM) | 66 µg/mL (≈ 119 µM) | <24% | 43 nM
Cc1c(COc2ccccc2-c2csc(N3CC[C@@]4(C(=O)O)C[C@H]4C3)n2)ccc2c1CCN(C1CCOCC1)C2 [Compound 83] | 120 µg/mL (≈ 214 µM) | 47 µg/mL (≈ 84 µM) | 13 µg/mL (≈ 23.2 µM) | <24% | 4 nM
Cc1ccc(OCc2cc(C)c3c(c2)CCN(C2CCOCC2)C3)c(-c2cccc(N3C[C@@H]4C[C@]4(C(=O)O)C3)n2)c1 [Compound 37] | 100 µg/mL (≈ 181 µM) | 93 µg/mL (≈ 168 µM) | 50 µg/mL (≈ 90.3 µM) | <24% | 299 nM
Cc1ccc(OCc2cc(C)c3c(c2C)CCN(C2COC2)C3)c(-c2cccc(N3C[C@@H]4C[C@]4(C(=O)O)C3)n2)c1 [Compound 40] | 98 µg/mL (≈ 182 µM) | 79 µg/mL (≈ 146 µM) | 52 µg/mL (≈ 96.4 µM) | <24% | 38 nM

Continued, values first:

solubility at 24 h (physchem; [3]) | solubility at 24 h (physchem; [4]) | solubility at 24 h (physchem; [5]) | Metabolic stability (Qh %), % hepatic blood flow [1] | EC50 [2] | Structure (SMILES)
137 µg/mL (≈ 224 µM) | 135 µg/mL (≈ 221 µM) | 119 µg/mL (≈ 195 µM) | <24% | 18 nM | CCOC[C@H]1N(c2cccc(-c3cccc(C)c3OCc3cc(C)c4c(c3)CCN(C3CCOCC3)C4)n2)C[C@@H]2C[C@@]21C(=O)O [Compound 315]
120 µg/mL (≈ 214 µM) | 66 µg/mL (≈ 118 µM) | 31 µg/mL (≈ 55.4 µM) | 49% | 2 nM | Cc1cc(COc2c(C)cccc2-c2csc(N3CC[C@@]4(C(=O)O)C[C@H]4C3)n2)cc2c1CN(C1CCOC1)CC2 (stereo partly drawn) [Compound 95]
110 µg/mL (≈ 202 µM) | 62 µg/mL (≈ 114 µM) | 28 µg/mL (≈ 51.3 µM) | <24% | 162 nM | Cc1ccc(OCc2ccc3c(c2)CCN(C2CCOCC2)C3)c(-c2csc(N3C[C@@H]4C[C@]4(C(=O)O)C3)n2)c1 [Compound 145]
100 µg/mL (≈ 175 µM) | 92 µg/mL (≈ 161 µM) | 71 µg/mL (≈ 124 µM) | <24% | 23 nM | CO[C@@H]1CN(c2cccc(-c3cccc(C)c3OCc3ccc4c(c3)CCN(C3CCOCC3)C4)n2)CC[C@@H]1C(=O)O [Compound 67]
118 µg/mL (≈ 193 µM) | 109 µg/mL (≈ 178 µM) | 107 µg/mL (≈ 176 µM) | <24% | 4 nM | CO[C@@H]1CN(c2nc(-c3cccc(C)c3OCc3cc(F)c4c(c3)CCN(C3CCOCC3)CC4)cs2)CC[C@@H]1C(=O)O [Compound 244]
130 µg/mL (≈ 212 µM) | 110 µg/mL (≈ 180 µM) | 80 µg/mL (≈ 131 µM) | <24% | 9 nM | CCc1cc(COc2c(C)cccc2-c2cccc(N3C[C@@H]4C[C@]4(C(=O)O)[C@H]3COC)n2)cc2c1CN(C1CCOCC1)CC2 [Compound 53]
> 140 µg/mL | < 0.1 µg/mL | < 0.1 µg/mL | <24% | 49 nM | Cc1ccc(OCc2ccc3c(c2)CCN(C2CCOCC2)CC3)c(-c2csc(N3C[C@@H]4C[C@]4(C(=O)O)C3)n2)c1 [Compound 147]
116 µg/mL (≈ 180 µM) | 40.7 µg/mL (≈ 63.4 µM) | 38.9 µg/mL (≈ 60.6 µM) | 29% | 3 nM | CCO[C@H]1CN(c2nc(-c3cccc(Cl)c3OCc3cc4c(c(OC)c3)CN(C3CCOCC3)CC4)cs2)CC[C@H]1C(=O)O [Compound 261]
141 µg/mL (≈ 232 µM) | 16.4 µg/mL (≈ 27 µM) | 1 µg/mL (≈ 1.65 µM) | 79% | 2 nM | Cc1cc(COc2c(C)cccc2-c2csc(N3CC[C@@]4(C(=O)O)C[C@H]4C3)n2)cc2c1CN(C1CCC(F)(F)CC1)CC2 [Compound 303]
120 µg/mL (≈ 203 µM) | 4.3 µg/mL (≈ 7.27 µM) | 0.73 µg/mL (≈ 1.23 µM) | <24% | 46 nM | CO[C@H]1CN(c2nc(-c3cc(C)ccc3OCc3cc(C)c4c(c3)CCN(C3CCOCC3)C4)cs2)CC[C@H]1C(=O)O [Compound 180]
